Structures are written as SMILES. Structures can show the parent of a compound that is named as a salt.

One experiment has as its target T1, human A3AR (Homo sapiens, UniProt P0DMS8).
T1 construct: expressed in transfected cells
T1 sequence (P0DMS8 1-318): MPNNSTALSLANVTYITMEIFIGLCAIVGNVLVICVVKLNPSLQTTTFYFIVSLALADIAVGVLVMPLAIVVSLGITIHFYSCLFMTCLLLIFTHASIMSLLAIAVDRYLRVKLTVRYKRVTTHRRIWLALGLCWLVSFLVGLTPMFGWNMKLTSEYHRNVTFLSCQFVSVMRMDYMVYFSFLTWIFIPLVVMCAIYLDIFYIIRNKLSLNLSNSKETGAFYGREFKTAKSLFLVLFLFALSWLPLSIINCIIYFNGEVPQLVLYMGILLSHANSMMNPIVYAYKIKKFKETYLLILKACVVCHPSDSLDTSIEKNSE
As to the kind of experiment: LOPAC library primary screen: single concentration (10 μM) inhibition of 25 nM CA200645 binding, PHERAstar FS.
Details: not given
With `CCCCc1ccc(C(=O)O)nc1` [Fusaric acid], the “% 25 nM CA200645 binding” value is given as 66.5 ± 29.0%.
For the compound `CC(=O)O[C@H]1C[C@@]2(C)[C@@H](C[C@@H](O)[C@H]3[C@@]4(C)CC[C@@H](O)[C@@H](C)[C@@H]4CC[C@@]32C)/C1=C(\CCC=C(C)C)C(=O)[O-].[Na+]` [Fusidic acid sodium], the “% 25 nM CA200645 binding” value was 93.0 ± 9.1%.
With `NCCCC(=O)O` [GABA], the “% 25 nM CA200645 binding” value is on record as 95.6 ± 8.2%.
On to `Cl.Cl.Fc1ccc(C(OCCN2CCN(CCCc3ccccc3)CC2)c2ccc(F)cc2)cc1` [GBR-12909 dihydrochloride], for which the “% 25 nM CA200645 binding” value was determined as 95.7 ± 6.3%.
For the compound `COc1ccc(CNC(=O)/C=C/c2ccc3[nH]cc(CCN(C)C)c3c2)cc1` [GR 46611], the “% 25 nM CA200645 binding” value turned out to be 100.9 ± 13.0%.
Regarding `Br.Br.CN(C)CCCc1cc(C(=O)Nc2ccc(-c3ccncc3)cc2)ccc1O` [GR 55562 dihydrobromide], the “% 25 nM CA200645 binding” value was determined as 92.8 ± 13.3%.
On the same count and under the same terms, with `OC[C@H]1O[C@@H](n2cnc3c(N[C@H]4CCC[C@@H]4O)ncnc32)[C@H](O)[C@@H]1O` [GR 79236X] the figure was 78.0 ± 19.3%; with `Cn1cc(C(=O)OCC2CCN(CCNS(C)(=O)=O)CC2)c2ccccc21` [GR 113808], 92.8 ± 8.0%; with `CN(C)c1cc2c(Nc3ccc4c(cnn4Cc4ccccc4)c3)ncnc2cn1` [GW2974], 57.3 ± 11.9%.
As for `CC(C)(Sc1ccc(CCN(CCCCC2CCCCC2)C(=O)NC2CCCCC2)cc1)C(=O)O` [GW7647], the “% 25 nM CA200645 binding” value is recorded as 55.8 ± 12.2%.
As for `O=C(O)CCc1ccc(NCc2cccc(Oc3ccccc3)c2)cc1` [GW9508], the “% 25 nM CA200645 binding” value turned out to be 94.4 ± 0.8%.
On to `O=C(Nc1ccccc1)c1cc([N+](=O)[O-])ccc1Cl` [GW9662], for which the “% 25 nM CA200645 binding” value was found to be 114.5 ± 11.5%.
On the same count and under the same terms, next, `CC1=NN=C(c2ccc(N)cc2)c2cc3c(cc2C1)OCO3.Cl` [GYKI 52466 hydrochloride]: 78.2 ± 10.4%; `Cl.NC1C=CC=C(C(=O)O)C1` (stereo not drawn) [Gabaculine hydrochloride]: 97.5 ± 8.4%; `NCC1(CC(=O)O)CCCCC1` [Gabapentin]: 80.7 ± 22.8%.
Turning to `CC[N+](CC)(CC)CCOc1cccc(OCC[N+](CC)(CC)CC)c1OCC[N+](CC)(CC)CC` [Gallamine triethiodide], the “% 25 nM CA200645 binding” value is 78.3 ± 38.7%.
With `CC(=O)[C@H]1CC[C@H]2[C@@H]3CC[C@H]4C[C@](C)(O)CC[C@]4(C)[C@H]3CC[C@]12C` [Ganaxolone], the “% 25 nM CA200645 binding” value worked out at 83.6 ± 13.4%.
Same read-out and setting: with `Nc1nc(O)c2ncn(COC(CO)CO)c2n1` [Ganciclovir] the figure was 96.3 ± 6.5%.
Consider `Nc1ccn([C@@H]2O[C@H](CO)[C@@H](O)C2(F)F)c(=O)n1` [Gemcitabine hydrochloride], for which the “% 25 nM CA200645 binding” value turned out to be 106.0 ± 4.9%.
In the case of `COC(=O)C1=CO[C@@H](O)[C@@H]2C(CO)=CC[C@H]12` [Genipin], the “% 25 nM CA200645 binding” value is recorded as 96.3 ± 9.0%.
`Cc1cnc(C(=O)NCCc2ccc(S(=O)(=O)NC(=O)NC3CCCCC3)cc2)cn1` [Glipizide]: the “% 25 nM CA200645 binding” value came out at 96.3 ± 1.2%.
`COc1ccc(Cl)cc1C(=O)NCCc1ccc(S(=O)(=O)NC(=O)NC2CCCCC2)cc1` [Glybenclamide]: the “% 25 nM CA200645 binding” value came out at 92.8 ± 16.7%.
On to `Cc1cc2c(C(C)C)c(O)c(O)c(C=O)c2c(O)c1-c1c(C)cc2c(C(C)C)c(O)c(O)c(C=O)c2c1O` [Gossypol], for which the “% 25 nM CA200645 binding” value is on record as 54.1 ± 12.3%.
In the case of `CN1C2CCCC1CC(NC(=O)c1nn(C)c3ccccc13)C2` (stereo not drawn) [Granisetron hydrochloride], the “% 25 nM CA200645 binding” value was found to be 100.4 ± 14.5%.
For `N=C(N)N/N=C/c1c(Cl)cccc1Cl` [Guanabenz acetate], the “% 25 nM CA200645 binding” value is recorded as 98.2 ± 11.7%.
Regarding `CNCCNS(=O)(=O)c1cccc2cnccc12.Cl.Cl` [H-8 dihydrochloride], the “% 25 nM CA200645 binding” value was 106.4 ± 6.7%.
In the case of `CCCCC#Cc1nc(NC)c2ncn([C@@H]3O[C@H](CO)[C@@H](O)[C@H]3O)c2n1` [HEMADO, reference compound], the “% 25 nM CA200645 binding” value is recorded as 40.1 ± 10.4%.
With `C[N+](C)(C)CCCCCC[N+](C)(C)C` [Hexamethonium bromide], the “% 25 nM CA200645 binding” value came out at 99.4 ± 1.1%.
On to `C[N+](C)(C)CCCCCC[N+](C)(C)C.[Cl-].[Cl-]` [Hexamethonium dichloride], for which the “% 25 nM CA200645 binding” value stood at 100.8 ± 9.2%.
On to `O=c1cc(O)cc(/C=C/c2ccc(O)c(O)c2)o1` [Hispidin], for which the “% 25 nM CA200645 binding” value is 77.8 ± 19.6%.
Same read-out and setting: with `NCCc1c[nH]cn1` [Histamine dihydrochloride] the figure was 102.0 ± 10.2%; with `NNc1nncc2ccccc12` [Hydralazine hydrochloride], 100.6 ± 8.6%; with `NS(=O)(=O)c1cc2c(cc1Cl)NCNS2(=O)=O` [Hydrochlorothiazide], 95.6 ± 3.9%.
On the same count and under the same terms, with `C[C@]12CCC(=O)C=C1CC[C@@H]1[C@@H]2[C@@H](O)C[C@@]2(C)[C@H]1CC[C@]2(O)C(=O)CO` [Hydrocortisone] the figure was 84.4 ± 24.1%; with `Oc1ccc(O)cc1` [Hydroquinone], 100.7 ± 6.6%.
Still for that read-out and setting: with `Cl.NO` [Hydroxylamine hydrochloride] the figure was 99.3 ± 3.4%.
Consider `Nc1c2c(nc3ccccc13)CCCC2O.O=C(O)/C=C\C(=O)O` (stereo not drawn) [Hydroxytacrine maleate], for which the “% 25 nM CA200645 binding” value stood at 108.6 ± 13.0%.
As to `NC(=O)NO` [Hydroxyurea], the “% 25 nM CA200645 binding” value was 107.6 ± 23.3%.
Regarding `NCCS(=O)O` [Hypotaurine], the “% 25 nM CA200645 binding” value turned out to be 94.6 ± 26.1%.
Turning to `COc1cc(/C=C(\C#N)C(=O)c2ccc(O)c(O)c2)cc(I)c1O` [I-OMe-Tyrphostin AG 538], the “% 25 nM CA200645 binding” value is listed as 71.3 ± 34.4%.
With `CNC(=O)[C@H]1O[C@@H](n2cnc3c(NCc4cccc(I)c4)ncnc32)[C@H](O)[C@@H]1O` [IB-MECA, reference compound], the “% 25 nM CA200645 binding” value is 36.3 ± 4.0% and the “% Total CA200645 binding” value is 36.3 ± 4.0%.
Regarding `COc1cc(OC)c(C=C2C(O)=Nc3ccccc32)c(OC)c1` [IC 261], the “% 25 nM CA200645 binding” value was found to be 88.8 ± 5.2%.
For `CCCn1c(=O)c(C)cn2nc(N)nc12` [ICI 63,137], the “% 25 nM CA200645 binding” value was 93.4 ± 5.4%.
On to `CN(C(=O)Cc1ccc(Cl)c(Cl)c1)C(CN1CCCC1)c1cccc(OCC(=O)O)c1.Cl` (stereo not drawn) [ICI 204,448 hydrochloride], for which the “% 25 nM CA200645 binding” value was found to be 104.6 ± 7.5%.
For `Cl.Fc1ccc(CN(C2=NCCN2)c2c(Cl)cccc2Cl)cc1` [IMID-4F hydrochloride], the “% 25 nM CA200645 binding” value came out at 97.3 ± 5.7%.
As for `COc1ccc(/C=C2\COc3ccc(C)cc3C2=O)cc1O` [IMS2186], the “% 25 nM CA200645 binding” value came to 95.7 ± 10.2%.
For `Oc1ccc2ccccc2c1SSc1c(O)ccc2ccccc12` [IPA-3], the “% 25 nM CA200645 binding” value is 63.1 ± 15.2%.
Regarding `O=C(Nc1nc2ccccc2n1CCN1CCOCC1)c1cccc([N+](=O)[O-])c1` [IRAK-1/4 Inhibitor I], the “% 25 nM CA200645 binding” value worked out at 61.3 ± 9.4%.
Regarding `CCCCCN(C)CCC(O)(P(=O)([O-])O)P(=O)(O)O.[Na+]` [Ibandronate sodium], the “% 25 nM CA200645 binding” value turned out to be 95.5 ± 10.4%.
Still for that read-out and setting: next, `CC(C)C(=O)c1c(C(C)C)nn2ccccc12` [Ibudilast]: 82.8 ± 12.0%; `CC(=O)[C@]1(O)Cc2c(O)c3c(c(O)c2[C@@H](O[C@H]2C[C@H](N)[C@H](O)[C@H](C)O2)C1)C(=O)c1ccccc1C3=O` [Idarubicin]: 95.1 ± 1.7%; `CC(C(O)c1ccc(O)cc1)N1CCC(Cc2ccccc2)CC1.CC(C(O)c1ccc(O)cc1)N1CCC(Cc2ccccc2)CC1.O=C(O)C(O)C(O)C(=O)O` (stereo not drawn) [Ifenprodil tartrate]: 95.4 ± 10.6%.
Turning to `O=C1CCC(c2ccc(-n3ccnc3)cc2)=NN1` [Imazodan], the “% 25 nM CA200645 binding” value is 97.4 ± 12.7%.
Still for that read-out and setting: with `N=C(N)SCCc1cnc[nH]1` [Imetit dihydrobromide] the figure was 99.9 ± 2.2%; with `Cl.O=C(O)Cc1c[nH]cn1` [Imidazole-4-acetic acid hydrochloride], 99.3 ± 14.9%.
For the compound `C[C@@H](O)[C@H]1C(=O)N2C(C(=O)O)=C(SCCN=CN)C[C@H]12` [Imipenem monohydrate], the “% 25 nM CA200645 binding” value was determined as 96.8 ± 2.2%.
In the case of `CN(C)CCCN1c2ccccc2CCc2ccccc21` [Imipramine hydrochloride], the “% 25 nM CA200645 binding” value is 99.2 ± 4.6%.
For `CC(C)=CCOc1c2occc2cc2ccc(=O)oc12` [Imperatorin], the “% 25 nM CA200645 binding” value stood at 47.6 ± 2.3%.
The same measure, in the same setting: with `CN[C@@H]1C[C@@H](c2ccc(Cl)c(Cl)c2)c2ccccc21` [Indatraline hydrochloride] the figure was 103.0 ± 8.6%.

Still in this experiment, the particulars now being: % of 25 nM CA200645 binding in the presence of 10 μM compound, LOPAC full screen, A3AR CHO cells.
`CCCCC#Cc1nc(NC)c2ncn([C@@H]3O[C@H](CO)[C@@H](O)[C@H]3O)c2n1` [HEMADO, reference compound]: the “% Total CA200645 binding” value was determined as 40.1 ± 10.5%.

The same experiment, now with this note: % of control wells (1% DMSO and 25 nM CA200645); compounds at 10 µM; whole live cells expressing the A3AR; mean ± SD, three experiments in duplicate.
For the compound `O=c1c(-c2ccc(O)cc2)coc2cc(O)cc(O)c12` [Genistein], the “% 25 nM CA200645 binding” value was determined as 66.1 ± 12.2%.
For the compound `O=C(O)C1=CCCNC1` [Guvacine hydrochloride], the “% 25 nM CA200645 binding” value was 99.3 ± 14.1%.
The same measure, in the same setting: next, `O=C1NC(c2cccc([N+](=O)[O-])c2)=CCN1c1ccccc1O` [Icilin]: 88.5 ± 5.8%; `CCn1ccnc1CC1COc2ccccc2O1` (stereo not drawn) [Imiloxan hydrochloride]: 97.3 ± 10.2%.

The same experiment, now with this note: compounds tested at 10 µM; % of control wells (1% DMSO and 25 nM CA200645); whole live cells expressing the A3AR; mean ± SD, three experiments in duplicate.
`c1ccc2c(c1)OCC(C1=NCCN1)O2` (stereo not drawn) [Idazoxan hydrochloride]: the “% 25 nM CA200645 binding” value amounted to 112.7 ± 7.0%.

The values are drawn from paper PMC5733478, “A Non-imaging High Throughput Approach to Chemical Library Screening at the Unmodified Adenosine-A3 Receptor in Living Cells” (Frontiers in Pharmacology, 2017).
